Data published in BindingDB's records for PubMed 28741798 (Daiichi Sankyo Co., Ltd).

Target: Histone-lysine N-methyltransferase KMT5B (Homo sapiens, UniProt Q4FZB7)
Test: Inhibition of human SUV420H1 transcript variant 2 using Nucleosomes and [3H]SAM as substrate incubated for 30 mins to 1 hr by HotSpot kinase assay

Chain of Histone-lysine N-methyltransferase KMT5B (Q4FZB7 whole entry): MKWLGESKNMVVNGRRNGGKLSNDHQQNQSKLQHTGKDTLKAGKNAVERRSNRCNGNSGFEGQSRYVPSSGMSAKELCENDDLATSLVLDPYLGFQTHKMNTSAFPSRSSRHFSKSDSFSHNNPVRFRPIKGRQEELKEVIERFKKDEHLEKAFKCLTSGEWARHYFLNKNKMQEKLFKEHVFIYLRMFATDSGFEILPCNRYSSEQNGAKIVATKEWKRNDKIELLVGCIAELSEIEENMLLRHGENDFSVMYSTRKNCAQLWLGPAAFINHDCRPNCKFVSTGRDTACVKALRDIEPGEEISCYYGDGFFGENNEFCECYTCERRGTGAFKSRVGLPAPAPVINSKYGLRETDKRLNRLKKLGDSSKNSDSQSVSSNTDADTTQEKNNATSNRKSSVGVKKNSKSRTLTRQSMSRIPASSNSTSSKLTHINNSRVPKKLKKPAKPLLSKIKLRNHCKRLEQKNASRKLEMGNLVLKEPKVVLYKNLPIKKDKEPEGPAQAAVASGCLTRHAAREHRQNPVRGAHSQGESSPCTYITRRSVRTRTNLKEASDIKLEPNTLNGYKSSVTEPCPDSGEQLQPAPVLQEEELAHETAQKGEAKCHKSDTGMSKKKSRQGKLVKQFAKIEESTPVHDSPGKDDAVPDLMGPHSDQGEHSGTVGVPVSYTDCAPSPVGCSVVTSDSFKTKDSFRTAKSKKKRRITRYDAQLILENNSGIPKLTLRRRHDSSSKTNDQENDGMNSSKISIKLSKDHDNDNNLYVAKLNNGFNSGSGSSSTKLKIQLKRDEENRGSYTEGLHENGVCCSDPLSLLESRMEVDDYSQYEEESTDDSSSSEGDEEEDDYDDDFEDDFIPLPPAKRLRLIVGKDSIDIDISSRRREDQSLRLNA

Cc1cc(C)c(CNC(=O)c2cc(Cl)c3c(c2C)O[C@@](C)([C@H]2CC[C@H](N(C)C)CC2)O3)c(=O)[nH]1 [(2R)-7-chloro-2-[trans-4-(dimethylamino)cyclohexyl]-N-[(4,6-dimethyl-2-oxo-1,2-dihydropyridin-3-yl)methyl]-2,4-dimethyl-1,3-benzodioxole-5-carboxamide (Valemetostat)]
IC50: 1000 nM
